The nature of series [1]: Km from Lineweaver-Burke plot. The format is ADME.
The species named for series [2] is Rattus norvegicus. The experiment in a line: Evaluation of competition between CDH and compound using [3H]NANA as ligand in sialyltransferase assay at a concentration of 0.18 mM.
The species entered for series [3] is Rattus norvegicus. The experiment in a line: Evaluation of inhibition of CDH sialylation by the compound at a concentration of 0 mM. In kind it is functional.
Series [4] is filed under the species Rattus norvegicus. Nature of the series: Evaluation of competition between CDH and compound using [3H]NANA as ligand in sialyltransferase assay at a concentration of 0.90 mM.
Series [5] is filed under the species Rattus norvegicus. Nature of the series: Evaluation of inhibition of CDH sialylation by the compound at a concentration of 0.9 mM. The format is functional.

Several values for one entry are separate records, joined by “and”; a condition that tells them apart may be missing. Equal entries are not always repeated.

As usually defined, the Km is the substrate concentration at which the rate is half of its maximum. Usually Inhibition stands for how much of the control response was suppressed. Regarding `O=C(CCCC[C@@H]1SC[C@@H]2NC(=O)N[C@@H]21)NCCCC[C@H](NC(=O)c1ccc(C2(C(F)(F)F)N=N2)cc1)C(=O)NCCO[C@@H]1O[C@@H](CO)[C@@H](O[C@@H]2O[C@@H](CO)[C@H](O)[C@H](O)[C@@H]2O)[C@H](O)[C@@H]1O`, the Km in series [1] was found to be 180 µM. Besides, the Binding is 3850 dpm and 9480 dpm in series [2]; 8610 dpm in series [4]. Moreover, the Inhibition in series [3] is on record as 0%; in series [5] it was 64%.

These data come from ChEMBL document CHEMBL1128089, “A carbene-generating biotinylated lactosylceramide analog as novel photoreactive substrate for GM3 synthase” (Bioorg Med Chem Lett, 1995).
